Measured values reported in the supplement of paper PMC13380429.

What was measured:
Conditions in all cases: 72 h
Caco-2 [1] = experiment: cell viability relative to DMSO; higher = less toxic
Calu-3 [2] = experiment: as above
HepG2 [3] = experiment: as above
U2OS [4] = experiment: as above
Vero E6 [5] = experiment: as above
Caco-2 [6] = experiment: relative viability EC50 (midpoint between 100% and the lowest measured viability); higher = less toxic
Calu-3 [7] = experiment: as above
HepG2 [8] = experiment: as above
U2OS [9] = experiment: as above
Vero E6 [10] = experiment: as above
Caco-2 [11] = experiment: drug sensitivity score (DSS) for viability; higher = more toxic; extreme values may be limits of the assay
Calu-3 [12] = experiment: as above
HepG2 [13] = experiment: as above
U2OS [14] = experiment: as above
Vero E6 [15] = experiment: as above

| SMILES | cell viability (Caco-2 [1]; 1 nM) [%] | cell viability (Caco-2 [1]; 10 nM) [%] | cell viability (Caco-2 [1]; 100 nM) [%] | cell viability (Caco-2 [1]; 1000 nM) [%] | cell viability (Caco-2 [1]; 10000 nM) [%] | cell viability (Calu-3 [2]; 1 nM) [%] | cell viability (Calu-3 [2]; 10 nM) [%] | cell viability (Calu-3 [2]; 100 nM) [%] | cell viability (Calu-3 [2]; 1000 nM) [%] | cell viability (Calu-3 [2]; 10000 nM) [%] | cell viability (HepG2 [3]; 1 nM) [%] | cell viability (HepG2 [3]; 10 nM) [%] | cell viability (HepG2 [3]; 100 nM) [%] | cell viability (HepG2 [3]; 1000 nM) [%] | cell viability (HepG2 [3]; 10000 nM) [%] | cell viability (U2OS [4]; 1 nM) [%] | cell viability (U2OS [4]; 10 nM) [%] | cell viability (U2OS [4]; 100 nM) [%] | cell viability (U2OS [4]; 1000 nM) [%] | cell viability (U2OS [4]; 10000 nM) [%] | cell viability (Vero E6 [5]; 1 nM) [%] | cell viability (Vero E6 [5]; 10 nM) [%] | cell viability (Vero E6 [5]; 100 nM) [%] | cell viability (Vero E6 [5]; 1000 nM) [%] | cell viability (Vero E6 [5]; 10000 nM) [%] | relative viability EC50 (Caco-2 [6]) [µM] | relative viability EC50 (Calu-3 [7]) [µM] | relative viability EC50 (HepG2 [8]) [µM] | relative viability EC50 (U2OS [9]) [µM] | relative viability EC50 (Vero E6 [10]) [µM] | drug sensitivity score (Caco-2 [11]) | drug sensitivity score (Calu-3 [12]) | drug sensitivity score (HepG2 [13]) | drug sensitivity score (U2OS [14]) | drug sensitivity score (Vero E6 [15]) |
| --- | --- | --- | --- | --- | --- | --- | --- | --- | --- | --- | --- | --- | --- | --- | --- | --- | --- | --- | --- | --- | --- | --- | --- | --- | --- | --- | --- | --- | --- | --- | --- | --- | --- | --- | --- |
| CC1CC(OC(=O)C(O)c2ccccc2)CC(C)(C)N1C (centres undefined) [eucatropine] | 99.3 | 103 | 97 | 99.2 | 92.6 | 101 | 100 | 92.5 | 95 | 107 | 93.5 | 88.3 | 95.3 | 90 | 93.3 | 104 | 104 | 97.8 | 100 | 100 | 97.8 | 102 | 98.2 | 102 | 98.8 | > 10 | > 10 | > 10 | > 10 | > 10 | 0 | 0 | 0 | 0 | 0 |
| NC(=O)CC[C@H](NC(=O)Cc1ccccc1)C(=O)O [phenylacetylglutamine] | 91.4 | 101 | 82.2 | 96 | 92.9 | 90.6 | 102 | 94.9 | 95.8 | 98.3 | 93.9 | 94.4 | 96.2 | 90.9 | 98.5 | 97 | 101 | 97.8 | 92.2 | 97.5 | 104 | 94.6 | 103 | 100 | 105 | > 10 | > 10 | > 10 | > 10 | > 10 | 0 | 0 | 0 | 0 | 0 |
| O=C(O)c1ccc2cc(-c3ccc(O)c(C45CC6CC(CC(C6)C4)C5)c3)ccc2c1 [CD-437] | 99.4 | 92.8 | 89.4 | 56.2 | 36.8 | 92.7 | 101 | 93.3 | 85.7 | 24.4 | 108 | 95.4 | 105 | 48.8 | 29.3 | 101 | 100 | 98.7 | 84.7 | 9.8 | 107 | 99.1 | 104 | 87.6 | 54.7 | 0.436 | 1.79 | 0.685 | 1.88 | – | 9.5 | 6.5 | 9.9 | 7.5 | 4.2 |
| CC[N+](C)(CC)CCOC(=O)C1c2ccccc2Oc2ccccc21 [methantheline] | 91.6 | 108 | 89.1 | 99 | 96.3 | 99.9 | 96.2 | 103 | 106 | 88.9 | 102 | 88.7 | 97.9 | 79.8 | 97.5 | 99.1 | 100 | 100 | 104 | 97.8 | 95.3 | 97 | 94.4 | 93.2 | 93.8 | > 10 | > 10 | > 10 | > 10 | > 10 | 0 | 0 | 0 | 0 | 0 |
| CN1C(=O)CN=C(c2ccccc2)c2cc(Cl)ccc21 [diazepam] | 104 | 101 | 85.6 | 87.6 | 96 | 110 | 92.4 | 96.6 | 98 | 110 | 94.8 | 105 | 101 | 100 | 101 | 107 | 102 | 107 | 99.6 | 103 | 97.8 | 100 | 101 | 98.6 | 86.7 | > 10 | > 10 | > 10 | > 10 | > 10 | 2.2 | 0 | 0 | 0 | 0.2 |
| CC(C)(C)C(=O)OCOC(=O)[C@@H]1N2C(=O)[C@@H](/N=C/N3CCCCCC3)[C@H]2SC1(C)C [pivmecillinam] | 88.8 | 92.9 | 93.3 | 90.7 | 97.2 | 90.9 | 93.1 | 97.9 | 94.9 | 112 | 94.7 | 92.7 | 96.1 | 95.5 | 91.9 | 102 | 99.8 | 103 | 98.9 | 104 | 106 | 102 | 96.6 | 104 | 92.8 | > 10 | > 10 | > 10 | > 10 | > 10 | 0 | 0 | 0 | 0 | 0 |
| COc1ncc2cc(C(=O)Nc3cc(C(=O)NCc4cccc(Cl)c4)ccc3Cl)c(=O)[nH]c2n1 [TC-S-7004] | 111 | 107 | 99.6 | 98.6 | 95 | 94.8 | 94.8 | 105 | 104 | 104 | 98.6 | 97.4 | 100 | 87.7 | 101 | 98.8 | 102 | 103 | 103 | 99.1 | 104 | 101 | 102 | 100 | 95 | > 10 | > 10 | > 10 | > 10 | > 10 | 0 | 0 | 0 | 0 | 0 |
| CCC[S+]([O-])c1ccc2[nH]c(NC(=O)OC)nc2c1 (centres undefined) [albendazole-oxide] | 101 | 98.8 | 96.6 | 101 | 102 | 114 | 104 | 103 | 95.7 | 107 | 107 | 103 | 98 | 106 | 83.7 | 105 | 101 | 101 | 99.6 | 103 | 103 | 104 | 102 | 101 | 94 | > 10 | > 10 | > 10 | > 10 | > 10 | 0 | 0 | 0.2 | 0 | 0 |
| NS(=O)(=O)c1cccc2c1c([N+](=O)[O-])cc1nc(O)c(O)nc12 [NBQX] | 102 | 99.3 | 97 | 95.6 | 102 | 101 | 85.9 | 92.4 | 93.9 | 103 | 101 | 105 | 101 | 92.7 | 106 | 104 | 106 | 98.5 | 103 | 102 | 103 | 100 | 101 | 101 | 99.8 | > 10 | > 10 | > 10 | > 10 | > 10 | 0 | 0 | 0 | 0 | 0 |
| C[N+](C)(C)CC(=O)O [betaine] | 99.7 | 90 | 93.5 | 96.9 | 87.1 | 101 | 95.8 | 106 | 91.4 | 98.7 | 96.3 | 89.1 | 108 | 98.6 | 106 | 99.5 | 102 | 98.8 | 104 | 96.7 | 115 | 100 | 104 | 107 | 98.9 | > 10 | > 10 | > 10 | > 10 | > 10 | 0 | 0 | 0 | 0 | 0 |
| NC(=O)CCCCn1ccc(/N=C(\N)NCC(F)(F)F)n1 | 98.8 | 97.8 | 104 | 92.6 | 97.6 | 110 | 96.5 | 107 | 99.4 | 102 | 103 | 97.7 | 98.1 | 105 | 105 | 98.8 | 104 | 104 | 99.9 | 99.5 | 106 | 103 | 104 | 102 | 99.7 | > 10 | > 10 | > 10 | > 10 | > 10 | 0 | 0 | 0 | 0 | 0 |
| CO[C@]12C[C@@H](COC(=O)c3cncc(Br)c3)CN(C)[C@@H]1Cc1cn(C)c3cccc2c13 [nicergoline] | 97.7 | 96 | 102 | 95 | 95.4 | 108 | 112 | 111 | 99.7 | 96.6 | 111 | 101 | 102 | 118 | 98.2 | 97.1 | 94.8 | 100 | 95.4 | 96.8 | 93.7 | 101 | 92.6 | 97.4 | 108 | > 10 | > 10 | > 10 | > 10 | > 10 | 0 | 0 | 0 | 0 | 0 |
| C[N+]1(C)CCC(OC(=O)C(c2ccccc2)c2ccccc2)CC1 [4-DAMP] | 105 | 96.3 | 106 | 102 | 87.4 | 85.8 | 87.6 | 92.9 | 101 | 100 | 90.8 | 97 | 103 | 100 | 90.9 | 103 | 97.7 | 99.2 | 97.7 | 99.5 | 98.5 | 99.8 | 99 | 97.4 | 96 | > 10 | > 10 | > 10 | > 10 | > 10 | 0 | 0 | 0 | 0 | 0 |
| C[n+]1cccc(C(=O)[O-])c1 [trigonelline] | 96.8 | 83.1 | 92.9 | 94 | 99.3 | 102 | 103 | 105 | 103 | 95.7 | 89.2 | 95.9 | 91.8 | 82.9 | 90.5 | 104 | 95.5 | 96.5 | 101 | 97.4 | 99.6 | 82.5 | 106 | 102 | 76.6 | > 10 | > 10 | > 10 | > 10 | > 10 | 0 | 0 | 0 | 0 | 0.7 |
| CCN(CC)C(=O)c1ccc(C2=CC3(CCNCC3)Oc3cccc(O)c32)cc1 [ADL5859] | 93 | 99.8 | 91.9 | 97.3 | 110 | 92.9 | 96.9 | 91.8 | 105 | 105 | 103 | 99.5 | 104 | 100 | 101 | 95.4 | 98.2 | 100 | 103 | 104 | 94.1 | 104 | 94.9 | 98.5 | 108 | > 10 | > 10 | > 10 | > 10 | > 10 | 0 | 0 | 0 | 0 | 0 |
